Entries after “also recorded” stand apart in the source; their conditions may differ.
Experiments:
[1] = target: T1, D2 receptors (Rattus norvegicus, UniProt P61169); experiment: D2 antagonist binding ([3H]-spiperone), rat striatum
T1 construct: Preparation of rat striatal membranes for (3H)-spiperone; from tissue; host or cells: rat striatum (striatal membranes)
Method: D2 antagonist binding. Preparation of rat striatal membranes for (3H)-spiperone (specific activity 21-24 Ci/mmol) binding was carried out in a similar manner as described for D1-binding, Hyttel et al., J. Neural. Transm., 68, 171 (1987).
IC50 values were calculated by semi-log plot and linear regression analysis.

[2] = system: 5-HT receptor; experiment: 5-HTP accumulation (5-HT synthesis rate) in non-pretreated rats after NSD 1015; format: in vivo, rat (male Sprague-Dawley)
Method: observations are commented to the right. After the session the rats were
accumulation in the NErich cortical regions and 5HTP in the limbic
(§1) Injection volumes were 5 mL/kg.

[3] = system: DA receptor; experiment: DA metabolism (DOPAC, HVA levels) in habituated rats; format: in vivo, rat (male Sprague-Dawley); details: Rattus norvegicus, 1 h, read-out: DOPAC limbic
Summary of the method: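 Rats habituated to motility meters 60 min, no NSD given; killed one hour after drug administration (injection volume 5 mL/kg). Striatal and limbic DOPAC, HVA and 5-HIAA measured by HPLC-EC, expressed as % of controls (means ±SEM).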

[4] = system: habituated rats; experiment: Locomotor activity and behavior in habituated rats; format: in vivo, rat (male Sprague-Dawley); details: 60 min
Method: Footnotes Table 3. The rats were habituated to the motility meters 60 min
prior to the activity session.
as §1
Locomotor activity was measured in rats which were habituated 60 minutes to the activity meters before drug injection. The activity was measured for the subsequent 60 minutes and expressed as % of controls (means ±SEM, n=4).

[5] = system: striatal DA release; experiment: In vivo brain microdialysis in rat striatum (conscious rats); details: for Microdialysis in rat striatum, 5-HIAA / Microdialysis in rat striatum, DA / Microdialysis in rat striatum, DOPAC / Microdialysis in rat striatum, HVA: 50 μmol/kg s.c.
Method: In the experiments with habituated rats no NSD was administered and the animals were killed one hour after drug administration. […] The levels were expressed as % of controls (DOPAC and 5-HIAA see Table 3). The in vivo brain microdialysis experiments were performed in conscious rats as described by Waters et al., Eur. J. Pharm., 187, 425-34 (1990).
The dialysis was performed in conscious rats implanted with a dialysis probe (Carnegie Medicin, Stockholm) in the caudate. […] The perfusion media was a Ringer solution with a Ca2+ concentration of 1.2 mM. The perfusion rate was 2.0 μL/min and samples were collected every 20 minutes and analyzed on HPLC/EC. Data are expressed as % of controls, means ±SEM, n=4.

[6] = system: dopamine autoreceptors; experiment: GBL-model (DA synthesis rate; presynaptic dopamine autoreceptors); format: in vivo, rat
From the text: The effects on DOPA accumulation in the GBL-model is considered to reflect an event at the presynaptic dopamine autoreceptors (for further details, see Svensson et al., Nunyn-Schmiedeberg's Arch. Pharm., 334, 234(1986)).

[7] = system: d-amphetamine-induced hyperactivity; experiment: d-Amphetamine-induced hyperactivity in habituated rats; format: in vivo, rat
[8] = system: DA receptor; experiment: DOPA accumulation (DA synthesis rate) in non-pretreated rats after NSD 1015; details: for duration of the increase in brain DOPA accumulation: 50 μmol/kg

T1 sequence (P61169 whole entry): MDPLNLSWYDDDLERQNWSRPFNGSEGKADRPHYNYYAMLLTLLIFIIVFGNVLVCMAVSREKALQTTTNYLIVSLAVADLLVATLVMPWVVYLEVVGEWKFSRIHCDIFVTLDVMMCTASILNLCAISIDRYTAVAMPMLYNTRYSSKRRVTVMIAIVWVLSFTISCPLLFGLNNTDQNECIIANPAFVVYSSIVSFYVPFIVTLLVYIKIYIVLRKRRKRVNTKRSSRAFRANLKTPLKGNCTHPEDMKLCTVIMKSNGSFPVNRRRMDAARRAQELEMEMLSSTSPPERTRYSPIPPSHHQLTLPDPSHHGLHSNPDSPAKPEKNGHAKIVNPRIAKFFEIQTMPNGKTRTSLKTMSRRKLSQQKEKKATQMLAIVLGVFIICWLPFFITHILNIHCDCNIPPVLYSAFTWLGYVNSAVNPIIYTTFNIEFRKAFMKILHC

For `CCCN1CCC[C@@H](c2cccc(C#N)c2)C1` [S-(-)-34, S-(-)-3-(3-Cyanophenyl-N-n-propyl)piperidine], the “affinity for D2 receptors (in words)” value ([1]; (3H)-Spiperone binding) was “weak, affinity to the dopamine D2 receptor site”, the IC50 ([1]; read-out: in vitro binding IC50, D2 -spip, [3H]-spiperone, rat striatum) was 3.5 µM and the “brain 5-HTP formation, elevation” value ([2]; 25 μmol/kg, sc and above) was 45-50%. For the same compound, the “5-HTP acc Limbic Region” value ([2]; 50 sc) was 144 ± 6 % of saline controls, the “5-HTP acc Limbic Region” value ([2]; 100 sc) was 148 ± 10 % of saline controls and the “5-HTP acc Limbic Region” value ([2]; 200 sc) was 80 ± 12 % of saline controls. For the same compound, the “brain 5-HTP levels (in words)” value ([2]; non-pretreated rats) was “elevated brain 5-HTP levels”, the response vs control in vivo at 25 µmol/kg ([3]; po) was 138 ± 13% and the response vs control in vivo at 100 µmol/kg ([3]; sc) was 226 ± 11%. The “locomotor stimulation in habituated rats” value ([4]; % of controls) was “+600%”, the response vs control in vivo at 25 µmol/kg ([4]; Rattus norvegicus, 1 h, 25 μmol/kg po, habituated rats, read-out: Motor Activity) was 231 ± 31% and the “Microdialysis in rat striatum, 5-HIAA” value ([5]; 0 min) was 100 % of control. For the same compound, the “Microdialysis in rat striatum, DA” value ([5]; 0 min) was 100 % of control, the “Microdialysis in rat striatum, DOPAC” value ([5]; 0 min) was 100 % of control and the “Microdialysis in rat striatum, HVA” value ([5]; 0 min) was 100 % of control. The “Microdialysis in rat striatum, 5-HIAA” value ([5]; 20 min) was 110 % of control, the “Microdialysis in rat striatum, DA” value ([5]; 20 min) was 180 % of control and the “Microdialysis in rat striatum, DOPAC” value ([5]; 20 min) was 180 % of control. For the same compound, the “Microdialysis in rat striatum, HVA” value ([5]; 20 min) was 140 % of control, the “Microdialysis in rat striatum, 5-HIAA” value ([5]; 40 min) was 115 % of control and the “Microdialysis in rat striatum, DA” value ([5]; 40 min) was 240 % of control. For the same compound, the “Microdialysis in rat striatum, DOPAC” value ([5]; 40 min) was 250 % of control, the “Microdialysis in rat striatum, HVA” value ([5]; 40 min) was 200 % of control and the “Microdialysis in rat striatum, 5-HIAA” value ([5]; 60 min) was 120 % of control. The “Microdialysis in rat striatum, DA” value ([5]; 60 min) was 280 % of control, the “Microdialysis in rat striatum, DOPAC” value ([5]; 60 min) was 295 % of control and the “Microdialysis in rat striatum, HVA” value ([5]; 60 min) was 250 % of control. For the same compound, the “Microdialysis in rat striatum, 5-HIAA” value ([5]; 80 min) was 115 % of control, the “Microdialysis in rat striatum, DA” value ([5]; 80 min) was 300 % of control and the “Microdialysis in rat striatum, DOPAC” value ([5]; 80 min) was 300 % of control. For the same compound, the “Microdialysis in rat striatum, HVA” value ([5]; 80 min) was 280 % of control, the “Microdialysis in rat striatum, 5-HIAA” value ([5]; 100 min) was 115 % of control and the “Microdialysis in rat striatum, DA” value ([5]; 100 min) was 280 % of control. For the same compound, the “Microdialysis in rat striatum, DOPAC” value ([5]; 100 min) was 295 % of control, the “Microdialysis in rat striatum, HVA” value ([5]; 100 min) was 300 % of control and the “Microdialysis in rat striatum, 5-HIAA” value ([5]; 120 min) was 110 % of control. For the same compound, the “Microdialysis in rat striatum, DA” value ([5]; 120 min) was 275 % of control, the “Microdialysis in rat striatum, DOPAC” value ([5]; 120 min) was 280 % of control and the “Microdialysis in rat striatum, HVA” value ([5]; 120 min) was 310 % of control. For the same compound, the “Microdialysis in rat striatum, 5-HIAA” value ([5]; 140 min) was 105 % of control, the “Microdialysis in rat striatum, DA” value ([5]; 140 min) was 225 % of control and the “Microdialysis in rat striatum, DOPAC” value ([5]; 140 min) was 260 % of control. For the same compound, the “Microdialysis in rat striatum, HVA” value ([5]; 140 min) was 300 % of control, the “Microdialysis in rat striatum, 5-HIAA” value ([5]; 160 min) was 110 % of control and the “Microdialysis in rat striatum, DA” value ([5]; 160 min) was 200 % of control. The “Microdialysis in rat striatum, DOPAC” value ([5]; 160 min) was 250 % of control, the “Microdialysis in rat striatum, HVA” value ([5]; 160 min) was 305 % of control and the “Microdialysis in rat striatum, 5-HIAA” value ([5]; 180 min) was 110 % of control. For the same compound, the “Microdialysis in rat striatum, DA” value ([5]; 180 min) was 190 % of control, the “Microdialysis in rat striatum, DOPAC” value ([5]; 180 min) was 230 % of control and the “Microdialysis in rat striatum, HVA” value ([5]; 180 min) was 280 % of control. For the same compound, the “Microdialysis in rat striatum, 5-HIAA” value ([5]; 200 min) was 110 % of control, the “Microdialysis in rat striatum, DA” value ([5]; 200 min) was 180 % of control and the “Microdialysis in rat striatum, DOPAC” value ([5]; 200 min) was 215 % of control. The “Microdialysis in rat striatum, HVA” value ([5]; 200 min) was 220 % of control, the “Microdialysis in rat striatum, 5-HIAA” value ([5]; 220 min) was 100 % of control and the “Microdialysis in rat striatum, DA” value ([5]; 220 min) was 160 % of control. The “Microdialysis in rat striatum, DOPAC” value ([5]; 220 min) was 190 % of control, the “Microdialysis in rat striatum, HVA” value ([5]; 220 min) was 230 % of control and the “duration for the increase in DOPAC and HVA” value ([5]; 50 μmol/kg, sc) was “at least 4 hours”. For the same compound, the “duration of the effect (DA release)” value ([5]; 50 μmol/kg, sc) was “approximately 2.5 hours”, the “levels of 5-HIAA, microdialysis (in words)” value ([5]; 50 μmol/kg, sc) was “No consistent changes in the levels of 5-HIAA; also recorded: failed to affect brain levels of 5-HIAA” and the “blockade of the apomorphine effect in the GBL-model” value ([6]; 100 μmol/kg, sc) was “only a partial blockade”. The “effect per se in the GBL-model” value ([6]; 200 μmol/kg, sc) was “inactive per se”, the “blockade of the apomorphine effect in the GBL-model” value ([6]; 200 μmol/kg, sc, 40 minutes) was “blocked the effect of apomorphine” and the “blockade of apomorphine in the GBL-model (in words)” value ([6]; rat, in vivo) was “blocks apomorphine in the GBL-model”. For the same compound, the “effect on d-amphetamine-induced hyperactivity” value ([7]; 64 mg/kg, sc, d-amphetamine 5.0 mg/kg) was “failed to block the hyperactivity”, the “effect combined with lower dose of d-amphetamine” value ([7]; d-amphetamine 0.5 mg/kg, sc) was “additive stimulatory effect” and the “block of d-amphetamine-induced hyperactivity (in words)” value ([7]; even at high doses) was “failed to block d-amphetamine-induced hyperactivity even at high doses”. For the same compound, the “effect on activation induced by high dose d-amphetamine” value ([7]; test compound 14 mg/kg, sc, d-amphetamine 5 mg/kg) was “failed to affect the strong activation”, the “duration of the increase in brain DOPA accumulation” value ([8]; po) was 1.5 to 2.5 h and the “duration of the increase in brain DOPA accumulation” value ([8]; s.c.) was 2.5 to 4.5 h. The “DOPA accumulation in limbic and striatal brain regions (in words)” value ([8]; 3.1-200 μmol/kg, s.c.) was “elevated in the limbic (limb.) and striatal (stri) brain regions with a maximal response equal to that observed for classical neuroleptics such as haloperidol”, the “DOPA acc Cortex” value ([8]; 50 sc) was 155 ± 9 % of saline controls and the “DOPA acc Stratium” value ([8]; 50 sc) was 285 ± 3 % of saline controls. For the same compound, the “DOPA acc Cortex” value ([8]; 100 sc) was 158 ± 8 % of saline controls, the “DOPA acc Stratium” value ([8]; 100 sc) was 268 ± 16 % of saline controls and the “DOPA acc Cortex” value ([8]; 200 sc) was 148 ± 16 % of saline controls. For the same compound, the “DOPA acc Stratium” value ([8]; 200 sc) was 294 ± 26 % of saline controls, the estimated availability ([8]; from DOPA accumulation in the striatum after sc and po administration) was 50% and the “cortical DOPA formation (in words)” value ([8]; s.c.) was “slightly, but statistically significantly increased; also recorded: slight increase in cortical DOPA accumulation”.

Source: patent US5594024A, “Centrally actig substituted phenylazacycloalkanes” (priority 1995, dated 1997)
